# Reference: ChEMBL document CHEMBL3885881, “DrugMatrix”
# Species on record: Rattus norvegicus
# Test: DrugMatrix - Regimen: Daily Repeat
# Type: toxicity, organism-based, Sprague-Dawley
# Set-up: regimen Daily Repeat, gender Male, age 6-8 weeks
# Details: in vivo, ip, 1 mg/kg, route intraperitoneal, dose level High, vehicle 100 % SALINE; for ABSOLUTE BASOPHIL / ABSOLUTE EOSINOPHIL / ABSOLUTE LYMPHOCYTE / ABSOLUTE MONOCYTE / ABSOLUTE SEGMENTED NEUTROPHIL / BASOPHIL / EOSINOPHIL / ERYTHROCYTE COUNT / HEMATOCRIT / HEMOGLOBIN / LEUKOCYTE COUNT / LYMPHOCYTE / MEAN CORPUSCULAR HEMOGLOBIN / MEAN CORPUSCULAR HEMOGLOBIN CONCENTRATION / MEAN CORPUSCULAR VOLUME / MONOCYTE / NEUTROPHIL / NUCLEATED RED BLOOD CELLS / PLATELET COUNT: tissue Blood; for ALANINE AMINOTRANSFERASE / ALKALINE PHOSPHATASE / ASPARTATE AMINOTRANSFERASE / BLOOD UREA NITROGEN / CARBON DIOXIDE / CHLORIDE / CHOLESTEROL / CREATININE / GLUCOSE / LACTATE DEHYDROGENASE / LIPASE / PHOSPHORUS / POTASSIUM / SODIUM / TOTAL BILIRUBIN / TOTAL PROTEIN / URIC ACID: tissue Plasma
smiles,measurement,setting,value
CC[C@H]1CN2CCc3cc(OC)c(OC)cc3[C@@H]2C[C@@H]1C[C@H]1NCCc2cc(OC)c(OC)cc21 [EMETINE],ABSOLUTE BASOPHIL,"72 h, time 3 day",0 CELLS/uL
same,ABSOLUTE EOSINOPHIL,"72 h, time 3 day",235.33 CELLS/uL
same,ABSOLUTE LYMPHOCYTE,"72 h, time 3 day",9173.33 CELLS/uL
same,ABSOLUTE MONOCYTE,"72 h, time 3 day",141.33 CELLS/uL
same,ABSOLUTE SEGMENTED NEUTROPHIL,"72 h, time 3 day",916.67 CELLS/uL
same,BASOPHIL,"72 h, time 3 day",0%
same,EOSINOPHIL,"72 h, time 3 day",2.33%
same,ERYTHROCYTE COUNT,"72 h, time 3 day",6.53 x10E6/uL
same,HEMATOCRIT,"72 h, time 3 day",38.67%
same,HEMOGLOBIN,"72 h, time 3 day",13.97 G/DL
same,LEUKOCYTE COUNT,"72 h, time 3 day",10.47 x10E3/uL
same,LYMPHOCYTE,"72 h, time 3 day",88%
same,MEAN CORPUSCULAR HEMOGLOBIN,"72 h, time 3 day",21.37 pg
same,MEAN CORPUSCULAR HEMOGLOBIN CONCENTRATION,"72 h, time 3 day",36.1 G/DL
same,MEAN CORPUSCULAR VOLUME,"72 h, time 3 day",59.2 fL
same,MONOCYTE,"72 h, time 3 day",1.33%
same,NEUTROPHIL,"72 h, time 3 day",8.33%
same,NUCLEATED RED BLOOD CELLS,"72 h, time 3 day",0 /100WBC
same,PLATELET COUNT,"72 h, time 3 day",1026.33 x10E3/uL
same,ALANINE AMINOTRANSFERASE,"72 h, time 3 day",66.33 u/L
same,ALKALINE PHOSPHATASE,"72 h, time 3 day",365 u/L
same,ASPARTATE AMINOTRANSFERASE,"72 h, time 3 day",82.33 u/L
same,BLOOD UREA NITROGEN,"72 h, time 3 day",17.67 mg/dL
same,CARBON DIOXIDE,"72 h, time 3 day",34.67 mmol/L
same,CHLORIDE,"72 h, time 3 day",100.33 MEQ/L
same,CHOLESTEROL,"72 h, time 3 day",63 mg/dL
same,CREATININE,"72 h, time 3 day",0.22 mg/dL
same,GLUCOSE,"72 h, time 3 day",180.33 mg/dL
same,LACTATE DEHYDROGENASE,"72 h, time 3 day",120.33 u/L
same,LIPASE,"72 h, time 3 day",9 u/L
same,PHOSPHORUS,"72 h, time 3 day",11.83 mg/dL
same,POTASSIUM,"72 h, time 3 day",6.48 MEQ/L
same,SODIUM,"72 h, time 3 day",146.33 MEQ/L
same,TOTAL BILIRUBIN,"72 h, time 3 day",0.2 mg/dL
same,TOTAL PROTEIN,"72 h, time 3 day",6.27 G/DL
same,URIC ACID,"72 h, time 3 day",1.73 mg/dL
same,ABSOLUTE BASOPHIL,"120 h, time 5 day",0 CELLS/uL
same,ABSOLUTE EOSINOPHIL,"120 h, time 5 day",107.33 CELLS/uL
same,ABSOLUTE LYMPHOCYTE,"120 h, time 5 day",9674.67 CELLS/uL
same,ABSOLUTE MONOCYTE,"120 h, time 5 day",240.33 CELLS/uL
same,ABSOLUTE SEGMENTED NEUTROPHIL,"120 h, time 5 day",1811 CELLS/uL
same,BASOPHIL,"120 h, time 5 day",0%
same,EOSINOPHIL,"120 h, time 5 day",1%
same,ERYTHROCYTE COUNT,"120 h, time 5 day",6.23 x10E6/uL
same,HEMATOCRIT,"120 h, time 5 day",37.3%
same,HEMOGLOBIN,"120 h, time 5 day",13.67 G/DL
same,LEUKOCYTE COUNT,"120 h, time 5 day",11.83 x10E3/uL
same,LYMPHOCYTE,"120 h, time 5 day",82.67%
same,MEAN CORPUSCULAR HEMOGLOBIN,"120 h, time 5 day",21.93 pg
same,MEAN CORPUSCULAR HEMOGLOBIN CONCENTRATION,"120 h, time 5 day",36.67 G/DL
same,MEAN CORPUSCULAR VOLUME,"120 h, time 5 day",59.8 fL
same,MONOCYTE,"120 h, time 5 day",2%
same,NEUTROPHIL,"120 h, time 5 day",14.33%
same,NUCLEATED RED BLOOD CELLS,"120 h, time 5 day",0 /100WBC
same,PLATELET COUNT,"120 h, time 5 day",1167.33 x10E3/uL
same,ALANINE AMINOTRANSFERASE,"120 h, time 5 day",57 u/L
same,ALKALINE PHOSPHATASE,"120 h, time 5 day",325 u/L
same,ASPARTATE AMINOTRANSFERASE,"120 h, time 5 day",102.33 u/L
same,BLOOD UREA NITROGEN,"120 h, time 5 day",16.67 mg/dL
same,CARBON DIOXIDE,"120 h, time 5 day",28.67 mmol/L
same,CHLORIDE,"120 h, time 5 day",100.67 MEQ/L
same,CHOLESTEROL,"120 h, time 5 day",52.67 mg/dL
same,CREATININE,"120 h, time 5 day",0.23 mg/dL
same,GLUCOSE,"120 h, time 5 day",272.67 mg/dL
same,LACTATE DEHYDROGENASE,"120 h, time 5 day",312 u/L
same,LIPASE,"120 h, time 5 day",8.67 u/L
same,PHOSPHORUS,"120 h, time 5 day",14.97 mg/dL
same,POTASSIUM,"120 h, time 5 day",5.87 MEQ/L
same,SODIUM,"120 h, time 5 day",146.87 MEQ/L
same,TOTAL BILIRUBIN,"120 h, time 5 day",0.1 mg/dL
same,TOTAL PROTEIN,"120 h, time 5 day",5.9 G/DL
same,URIC ACID,"120 h, time 5 day",2.8 mg/dL
same,ABSOLUTE BASOPHIL,"[…], time 14 day",0 CELLS/uL
same,ABSOLUTE EOSINOPHIL,"[…], time 14 day",124.6 CELLS/uL
same,ABSOLUTE LYMPHOCYTE,"[…], time 14 day",16602.4 CELLS/uL
same,ABSOLUTE MONOCYTE,"[…], time 14 day",725.4 CELLS/uL
same,ABSOLUTE SEGMENTED NEUTROPHIL,"[…], time 14 day",1987.6 CELLS/uL
same,BASOPHIL,"[…], time 14 day",0%
same,EOSINOPHIL,"[…], time 14 day",0.6%
same,ERYTHROCYTE COUNT,"[…], time 14 day",6.66 x10E6/uL
same,HEMATOCRIT,"[…], time 14 day",38.76%
same,HEMOGLOBIN,"[…], time 14 day",14.18 G/DL
same,LEUKOCYTE COUNT,"[…], time 14 day",19.44 x10E3/uL
same,LYMPHOCYTE,"[…], time 14 day",85.6%
same,MEAN CORPUSCULAR HEMOGLOBIN,"[…], time 14 day",21.32 pg
same,MEAN CORPUSCULAR HEMOGLOBIN CONCENTRATION,"[…], time 14 day",36.58 G/DL
same,MEAN CORPUSCULAR VOLUME,"[…], time 14 day",58.24 fL
same,MONOCYTE,"[…], time 14 day",3.6%
same,NEUTROPHIL,"[…], time 14 day",10.2%
same,NUCLEATED RED BLOOD CELLS,"[…], time 14 day",0 /100WBC
same,PLATELET COUNT,"[…], time 14 day",1306.2 x10E3/uL
same,ALANINE AMINOTRANSFERASE,"[…], time 14 day",45.2 u/L
same,ALKALINE PHOSPHATASE,"[…], time 14 day",253.2 u/L
same,ASPARTATE AMINOTRANSFERASE,"[…], time 14 day",99 u/L
same,BLOOD UREA NITROGEN,"[…], time 14 day",13.6 mg/dL
same,CARBON DIOXIDE,"[…], time 14 day",31.8 mmol/L
same,CHLORIDE,"[…], time 14 day",101 MEQ/L
same,CHOLESTEROL,"[…], time 14 day",62.2 mg/dL
same,CREATININE,"[…], time 14 day",0.14 mg/dL
same,GLUCOSE,"[…], time 14 day",143.2 mg/dL
same,LACTATE DEHYDROGENASE,"[…], time 14 day",172.6 u/L
same,LIPASE,"[…], time 14 day",8.8 u/L
same,PHOSPHORUS,"[…], time 14 day",11.54 mg/dL
same,POTASSIUM,"[…], time 14 day",6.76 MEQ/L
same,SODIUM,"[…], time 14 day",145.5 MEQ/L
same,TOTAL BILIRUBIN,"[…], time 14 day",0.2 mg/dL
same,TOTAL PROTEIN,"[…], time 14 day",5.82 G/DL
same,URIC ACID,"[…], time 14 day",1.66 mg/dL
